Data as given in PubChem BioAssay AID248 (DTP/NCI, 2004).
Values joined by “and” are separate entries in the source; they are usually repeats but may differ in a detail not shown here. Identical values can stand only once. Inconclusive results and toxic doses are left out. No stated cut-off is given here; in the data, active means T/C of 150% or more; inactive means T/C below 125%.

Tested on: L1210 leukemia ip in BDF1 mice, survival T/C
Assay: NCI In Vivo Anticancer Drug Screen. Data for tumor model L1210 Leukemia (intraperitoneal) in B6D2F1 (BDF1) mice
Conditions: endpoint: mean survival time, higher = longer survival
How it was run: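 Tumor cells were implanted, animals were treated, and survival was followed. The result divides the treated measurement by the vehicle-control measurement.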

[1] = dose: 100.0 mg/kg/injection, schedule: Q04DX002 (ip), vehicle: saline with Tween-80
[2] = dose: 200.0 mg/kg/injection, schedule: Q04DX002 (ip), vehicle: saline with Tween-80
[3] = dose: 400.0 mg/kg/injection, schedule: Q04DX002 (ip), vehicle: saline with Tween-80
[4] = dose: 100.0 mg/kg/injection, schedule: Q01DX009 (ip), vehicle: Klucel (hydroxypropylcellulose) (HPC)
[5] = dose: 100.0 mg/kg/injection, schedule: Q04DX003 (ip), vehicle: Klucel (hydroxypropylcellulose) (HPC)
[6] = dose: 200.0 mg/kg/injection, schedule: Q01DX009 (ip), vehicle: Klucel (hydroxypropylcellulose) (HPC)
[7] = dose: 400.0 mg/kg/injection, schedule: Q04DX003 (ip), vehicle: Klucel (hydroxypropylcellulose) (HPC)
[8] = dose: 100.0 mg/kg/injection, schedule: Q01DX009 (ip), vehicle: saline with Tween-80
[9] = dose: 200.0 mg/kg/injection, schedule: Q01DX009 (ip), vehicle: saline with Tween-80
[10] = dose: 400.0 mg/kg/injection, schedule: Q01DX009 (ip), vehicle: saline with Tween-80
[11] = dose: 100.0 mg/kg/injection, schedule: Q04DX003 (ip), vehicle: saline with Tween-80
[12] = dose: 200.0 mg/kg/injection, schedule: Q04DX003 (ip), vehicle: saline with Tween-80
[13] = dose: 400.0 mg/kg/injection, schedule: Q04DX003 (ip), vehicle: saline with Tween-80
[14] = dose: 75.0 mg/kg/injection, schedule: Q01DX001 (ip), vehicle: saline
[15] = dose: 100.0 mg/kg/injection, schedule: Q01DX001 (ip), vehicle: saline
[16] = dose: 200.0 mg/kg/injection, schedule: Q01DX001 (ip), vehicle: saline
[17] = dose: 400.0 mg/kg/injection, schedule: Q01DX001 (ip), vehicle: saline
[18] = dose: 100.0 mg/kg/injection, schedule: Q04DX003 (ip), vehicle: saline
[19] = dose: 200.0 mg/kg/injection, schedule: Q04DX003 (ip), vehicle: saline
[20] = dose: 400.0 mg/kg/injection, schedule: Q04DX003 (ip), vehicle: saline
[21] = dose: 100.0 mg/kg/injection, schedule: Q01DX001 (ip), vehicle: Klucel (hydroxypropylcellulose) (HPC)
[22] = dose: 200.0 mg/kg/injection, schedule: Q01DX001 (ip), vehicle: Klucel (hydroxypropylcellulose) (HPC)
[23] = dose: 50.0 mg/kg/injection, schedule: Q01DX001 (ip), vehicle: saline

Measured: T/C

CC(=O)NC1CCC(CCC2CCCCC2)CC1 (stereo not drawn)
inactive: [1] 98 % of control | [2] 94 % of control | [3] 98 % of control

C[Si](C)(C)N1N=NC2C(=O)N(c3ccccc3)C(=O)C21 (stereo not drawn)
inactive: [4] 105 % of control | [5] 92 % of control | [6] 110 % of control | dose: 200.0 mg/kg/injection, schedule: Q04DX003 (ip), vehicle: Klucel (hydroxypropylcellulose) (HPC) 102 % of control | dose: 400.0 mg/kg/injection, schedule: Q01DX009 (ip), vehicle: Klucel (hydroxypropylcellulose) (HPC) 112 % of control | [7] 103 % of control

c1ccc(CCc2ccccc2)cc1
inactive: [8] 91 % of control | [1] 95 % of control | [9] 91 % of control | [2] 98 % of control | [10] 94 % of control | [3] 98 % of control

ClCCN(CCCl)CCNc1ccnc2cc(Cl)ccc12
inactive: dose: 5.0 mg/kg/injection, schedule: Q01DX001 (ip), vehicle: saline 100 % of control | dose: 10.0 mg/kg/injection, schedule: Q01DX001 (ip), vehicle: saline 108 % of control | dose: 20.0 mg/kg/injection, schedule: Q01DX001 (ip), vehicle: saline 117 % of control | dose: 40.0 mg/kg/injection, schedule: Q01DX001 (ip), vehicle: saline 116 % of control

O=C(O)c1cc(Cl)c(O)c(Cl)c1
inactive: [8] 107 % of control | [9] 91 % of control | [10] 101 % of control

C(/C=C/c1ccccc1)=Nc1ccc(CCc2ccc(N=C/C=C/c3ccccc3)cc2)cc1
inactive: [11] 91 % of control | [12] 92 % of control | [13] 92 % of control

COc1cc2c(cc1[N+](=O)[O-])-c1ccc([N+](=O)[O-])cc1/C2=N/NC(N)=S
inactive: dose: 75.0 mg/kg/injection, schedule: Q01DX001 (ip), vehicle: carboxymethylcellulose (CMC) 101 % of control

COc1cc(OC)c(OC)cc1OC
inactive: [8] 95 % of control | [9] 97 % of control

CC(C)C[n+]1cc([O-])on1
inactive: dose: 6.25 mg/kg/injection, schedule: Q01DX009 (ip), vehicle: Klucel (hydroxypropylcellulose) (HPC) 97 % of control | dose: 12.5 mg/kg/injection, schedule: Q01DX009 (ip), vehicle: Klucel (hydroxypropylcellulose) (HPC) 100 % of control

O=C(Nc1ccccc1)Nn1cnc2ccccc2c1=O
inactive: [11] 89 % of control | [12] 90 % of control | [13] 88 % of control

NP(N)(=O)c1ccccc1
inactive: [11] 107 % of control | [12] 118 % of control | [13] 105 % of control

CCC1CCC(N)CC1 (stereo not drawn)
inactive: [14] 100 % of control

C/C=C/C=N/NC(=O)c1ccc(OC)cc1
inactive: [4] 102 % of control | [6] 86 % of control

CC(=O)/C=C/c1c[nH]c(=O)[nH]c1=O
inactive: [1] 104 % of control | [2] 104 % of control | [3] 93 % of control

COC(=O)C1C2C(C)=C3CCCCC3(C1C(=O)OC)C(C(=O)OC)C2C(=O)OC (stereo not drawn)
inactive: [15] 113 % of control | [16] 95 % of control | [17] 86 % of control

CCOP(=O)(CCP(=O)(CCP(=O)(OCC)OCC)CCP(=O)(OCC)OCC)OCC
inactive: dose: 50.0 mg/kg/injection, schedule: Q01DX009 (ip), vehicle: saline 94 % of control | dose: 50.0 mg/kg/injection, schedule: Q04DX003 (ip), vehicle: saline 103 % of control | dose: 100.0 mg/kg/injection, schedule: Q01DX009 (ip), vehicle: saline 94 % of control | [18] 103 % of control | dose: 200.0 mg/kg/injection, schedule: Q01DX009 (ip), vehicle: saline 98 % of control | [19] 101 % of control | [20] 98 % of control

O=C(c1ccccc1)c1cc2ccccc2oc1=O
inactive: [21] 103 % of control | [22] 98 % of control | dose: 400.0 mg/kg/injection, schedule: Q01DX001 (ip), vehicle: Klucel (hydroxypropylcellulose) (HPC) 90 % of control

CC(=O)Oc1ccc([N+](=O)[O-])cc1
inactive: dose: 25.0 mg/kg/injection, schedule: Q04DX002 (ip), vehicle: Klucel (hydroxypropylcellulose) (HPC) 102 % of control | dose: 50.0 mg/kg/injection, schedule: Q04DX002 (ip), vehicle: Klucel (hydroxypropylcellulose) (HPC) 89 % of control | dose: 100.0 mg/kg/injection, schedule: Q04DX002 (ip), vehicle: Klucel (hydroxypropylcellulose) (HPC) 90 % of control | dose: 200.0 mg/kg/injection, schedule: Q04DX002 (ip), vehicle: Klucel (hydroxypropylcellulose) (HPC) 92 % of control and 96 % of control

O=C1C=C(c2ccccc2)c2cccc3cccc1c23
inactive: dose: 50.0 mg/kg/injection, schedule: Q01DX001 (ip), vehicle: Klucel (hydroxypropylcellulose) (HPC) 98 % of control | [21] 87 % of control | [22] 92 % of control

NCCCc1c(-c2ccccc2)nc(N)[nH]c1=O
inactive: [23] 108 % of control | [15] 110 % of control | [16] 98 % of control

CC(C)CC(N)C(=O)NNc1ccccc1 (stereo not drawn)
inactive: [14] 101 % of control | dose: 150.0 mg/kg/injection, schedule: Q01DX001 (ip), vehicle: saline 103 % of control | dose: 300.0 mg/kg/injection, schedule: Q01DX001 (ip), vehicle: saline 108 % of control

OCC1=CCc2ccccc21
inactive: dose: 100.0 mg/kg/injection, schedule: Q04DX002 (ip), vehicle: other 93 % of control | dose: 200.0 mg/kg/injection, schedule: Q04DX002 (ip), vehicle: other 93 % of control | dose: 400.0 mg/kg/injection, schedule: Q04DX002 (ip), vehicle: other 93 % of control

Nc1ncnc(N)c1NC(=O)c1cc(Cl)cc(Cl)c1
inactive: [5] 91 % of control | [7] 86 % of control

CCOC(=O)/C=C/c1c(OC)cc(OC)cc1OC
inactive: dose: 100.0 mg/kg/injection, schedule: Q01DX009 (ip), vehicle: other 97 % of control | [18] 101 % of control | dose: 200.0 mg/kg/injection, schedule: Q01DX009 (ip), vehicle: other 106 % of control | [19] 101 % of control | dose: 400.0 mg/kg/injection, schedule: Q01DX009 (ip), vehicle: other 94 % of control | [20] 93 % of control

NC(=S)N/N=C\c1cn(Cc2ccccc2)c2ccccc12
inactive: [23] 95 % of control | [15] 101 % of control | [16] 101 % of control | [17] 97 % of control

CC(=O)OC1C(NC(=O)OCc2ccccc2)CC(NC(=O)OCc2ccccc2)C(O)C1O (stereo not drawn)
inactive: [11] 94 % of control | [12] 88 % of control

Cc1c(Cl)ccc2c(C(=O)NN)cc(-c3ccc(Cl)cc3)nc12
inactive: dose: 100.0 mg/kg/injection, schedule: Q01DX001 (ip), vehicle: saline with Tween-80 92 % of control | dose: 200.0 mg/kg/injection, schedule: Q01DX001 (ip), vehicle: saline with Tween-80 97 % of control | dose: 400.0 mg/kg/injection, schedule: Q01DX001 (ip), vehicle: saline with Tween-80 97 % of control
